Broadly, the IC50 is the concentration needed to halve the response being measured. Low values mean inhibition by little substance, high ones a need for much substance.

Calls of active or inactive are those of the source. The rule behind the calls is not given here.

The target in experiment [1] is T1, 2-C-methyl-D-erythritol 2,4-cyclodiphosphate synthase (Salmonella typhimurium (strain LT2 / SGSC1412 / ATCC 700720), UniProt Q8ZMF7).
T1 sequence (Q8ZMF7 whole entry): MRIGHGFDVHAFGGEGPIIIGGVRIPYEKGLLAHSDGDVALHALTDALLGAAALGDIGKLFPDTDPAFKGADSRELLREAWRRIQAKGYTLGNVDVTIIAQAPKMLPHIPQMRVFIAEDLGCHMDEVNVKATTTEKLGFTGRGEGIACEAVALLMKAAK
Description: Inhibition of Salmonella typhimurium IspF by malachite green dye based assay. Further details: species or system Salmonella enterica subsp. enterica serovar Typhimurium.

For experiment [2], the system named is Burkholderia thailandensis. Description: Antibacterial activity against Burkholderia thailandensis at 0.5 mM by Kirby Bauer disk diffusion method. The experiment is classed as functional. The note with it: read-out: DIZ. On the technique in general: In agar diffusion tests the substance spreads into inoculated agar from a disc or well.
In another experiment the test system is Pseudomonas aeruginosa. As to the kind of experiment: Antibacterial activity against Pseudomonas aeruginosa at 0.5 mM by Kirby Bauer disk diffusion method. The experiment is classed as functional. Conditions: read-out: DIZ.
The test system of a further experiment is Bacillus cereus. As to the kind of experiment: Antibacterial activity against Bacillus cereus at 0.5 mM by Kirby Bauer disk diffusion method. The experiment is classed as functional. The note with it: read-out: DIZ.
The test system of another experiment is Escherichia coli. As to the kind of experiment: Antibacterial activity against Escherichia coli at 0.5 mM by Kirby Bauer disk diffusion method. The note with it: read-out: DIZ. The experiment is classed as functional.
Experiment [3] deals with Mycolicibacterium smegmatis. As to the kind of experiment: Antibacterial activity against Mycobacterium smegmatis at 0.5 mM by Kirby Bauer disk diffusion method. The experiment is classed as functional. The note with it: read-out: DIZ.
The test system of another experiment is Klebsiella pneumoniae. As to the kind of experiment: Antibacterial activity against Klebsiella pneumoniae at 0.5 mM by Kirby Bauer disk diffusion method. Conditions: read-out: DIZ. The experiment is classed as functional.
Another experiment concerns Corynebacterium xerosis. As to the kind of experiment: Antibacterial activity against Corynebacterium xerosis at 0.5 mM by Kirby Bauer disk diffusion method. The experiment is classed as functional. The note with it: read-out: DIZ.
Experiment [4] concerns Corynebacterium pseudodiphtheriticum. As to the kind of experiment: Antibacterial activity against Corynebacterium pseudodiphtheriticum at 0.5 mM by Kirby Bauer disk diffusion method. The experiment is classed as functional. Conditions: read-out: DIZ.
A further experiment concerns Micrococcus luteus. Description: Antibacterial activity against Micrococcus luteus at 0.5 mM by Kirby Bauer disk diffusion method. The experiment is classed as functional. Conditions: read-out: DIZ.
Experiment [5] deals with T2, 2-C-methyl-D-erythritol 2,4-cyclodiphosphate synthase (Burkholderia pseudomallei (strain K96243)) (UniProt Q63T71).
T2 sequence (whole entry): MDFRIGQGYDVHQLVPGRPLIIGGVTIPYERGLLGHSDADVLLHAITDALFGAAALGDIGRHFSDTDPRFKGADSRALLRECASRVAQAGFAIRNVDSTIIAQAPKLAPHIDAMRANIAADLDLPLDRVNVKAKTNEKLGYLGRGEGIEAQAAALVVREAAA
Description: Binding affinity to Burkholderia pseudomallei IspF by surface plasmon resonance analysis. For orientation: Surface plasmon resonance follows binding to a sensor surface in real time, without labels.

`CCOC(=O)C1=C(C)N=c2s/c(=C\c3cc(Br)c(O)c(Br)c3)c(=O)n2C1c1cccs1` (stereo unspecified) yielded a half-maximal inhibitory concentration (IC50) in experiment [1] of 37 µM.

Turning to `O=C(O)c1cnc(Nc2ccc(-c3ccncc3)cc2)nc1O`, the zone of inhibition at 500 µM is 0 mm in experiment [2]; 0 mm with Pseudomonas aeruginosa; 10 mm with Bacillus cereus; 0 mm in the experiment on Escherichia coli; 0 mm in experiment [3]; 0 mm with Klebsiella pneumoniae. Also, the zone of inhibition at 500 µM (in the experiment on Corynebacterium xerosis; in experiment [4]; with Micrococcus luteus) was 0 mm in each case. In addition, the IC50 in experiment [1] was determined as 23.5 µM. The result in [5] was Active.

For the compound `O=C(O)c1cnc(NCC2CCCO2)nc1O` (stereo unspecified), the zone of inhibition at 500 µM in [2] is 7 mm; in the experiment on Pseudomonas aeruginosa, 0 mm; in the experiment on Bacillus cereus it was 0 mm; in the experiment on Escherichia coli, 0 mm; in experiment [3] it was 0 mm; in the experiment with Klebsiella pneumoniae, 0 mm. Further, the zone of inhibition at 500 µM (with Corynebacterium xerosis; in experiment [4]; in the experiment with Micrococcus luteus) was 0 mm each time.

As to `CCOC(=O)c1cnc(Nc2ccc(CC(=O)O)cc2)nc1O`, the zone of inhibition at 500 µM in experiment [2] is 8 mm; in the experiment with Pseudomonas aeruginosa, 0 mm; with Bacillus cereus it was 11 mm; in the experiment with Escherichia coli, 10 mm; in experiment [3], 0 mm; in the experiment with Klebsiella pneumoniae it was 9 mm. For the same compound, the zone of inhibition at 500 µM (in the experiment on Corynebacterium xerosis; in experiment [4]; in the experiment with Micrococcus luteus) was 0 mm each time.

For `O=C(O)c1cnc(NCc2ccc(Cl)cc2)nc1O`, the zone of inhibition at 500 µM in experiment [2] is 11 mm; in the experiment with Pseudomonas aeruginosa, 15 mm; in the experiment with Bacillus cereus, 14 mm; with Escherichia coli, 14 mm; in experiment [3] it was 15 mm; with Klebsiella pneumoniae it was 9 mm. The zone of inhibition at 500 µM (with Corynebacterium xerosis; in experiment [4]; in the experiment with Micrococcus luteus) was 0 mm each time.

As to `O=C(O)c1cnc(NCCc2ccccn2)nc1O`, the zone of inhibition at 500 µM in [2] was 10 mm; in the experiment on Pseudomonas aeruginosa it was 17 mm; in the experiment with Bacillus cereus, 7 mm; in the experiment with Escherichia coli, 0 mm; in experiment [3], 17 mm; in the experiment with Klebsiella pneumoniae, 7 mm. Further, the zone of inhibition at 500 µM with Corynebacterium xerosis was 0 mm; in experiment [4] it was 0 mm; in the experiment with Micrococcus luteus, 15 mm.

As for `CCOC(=O)c1cnc(NCc2ccc(Cl)c(Cl)c2)nc1O`, the zone of inhibition at 500 µM in experiment [2] amounted to 0 mm; with Pseudomonas aeruginosa it was 0 mm; with Bacillus cereus, 12 mm; in the experiment with Escherichia coli, 0 mm; in [3], 0 mm; in the experiment on Klebsiella pneumoniae, 0 mm. Further, the zone of inhibition at 500 µM (in the experiment with Corynebacterium xerosis; in experiment [4]; in the experiment with Micrococcus luteus) was 0 mm throughout.

Consider `CCOC(=O)c1cnc(NCCc2ccc(Cl)c(Cl)c2)nc1O`, for which the zone of inhibition at 500 µM in experiment [2] was determined as 0 mm; in the experiment with Pseudomonas aeruginosa, 0 mm; in the experiment with Bacillus cereus it was 10 mm; in the experiment with Escherichia coli, 0 mm; in experiment [3], 0 mm; in the experiment with Klebsiella pneumoniae, 0 mm. In addition, the zone of inhibition at 500 µM (in the experiment on Corynebacterium xerosis; in [4]; in the experiment with Micrococcus luteus) was 0 mm in each case.

Regarding `CCOC(=O)c1cnc(NCc2cc(Cl)ccc2Cl)nc1O`, the zone of inhibition at 500 µM in [2] worked out at 9 mm; with Pseudomonas aeruginosa, 0 mm; in the experiment with Bacillus cereus, 13 mm; in the experiment on Escherichia coli, 0 mm; in [3] it was 0 mm; in the experiment with Klebsiella pneumoniae, 0 mm. In addition, the zone of inhibition at 500 µM with Corynebacterium xerosis was determined as 0 mm; in experiment [4], 0 mm; in the experiment on Micrococcus luteus, 14 mm.

Turning to `CCOC(=O)c1cnc(NCc2ccc(F)cc2)nc1O`, the zone of inhibition at 500 µM was determined as 8 mm in experiment [2]; 0 mm in the experiment with Pseudomonas aeruginosa; 19 mm in the experiment on Bacillus cereus; 0 mm in the experiment with Escherichia coli; 0 mm in [3]; 0 mm in the experiment on Klebsiella pneumoniae. In addition, the zone of inhibition at 500 µM (with Corynebacterium xerosis; in experiment [4]; in the experiment with Micrococcus luteus) was 0 mm each time.

As for `CCOC(=O)c1cnc(Nc2ccc(N3CCOCC3)cc2)nc1O`, the zone of inhibition at 500 µM in experiment [2] came to 9 mm; with Pseudomonas aeruginosa, 11 mm; with Bacillus cereus, 6 mm; in the experiment on Escherichia coli, 0 mm; in [3], 14 mm; with Klebsiella pneumoniae, 8 mm. Moreover, the zone of inhibition at 500 µM (in the experiment on Corynebacterium xerosis; in experiment [4]; in the experiment with Micrococcus luteus) was 0 mm each time.

On to `CCOC(=O)c1cnc(Nc2cccc(-c3ccccc3)c2)nc1O`, for which the zone of inhibition at 500 µM in [2] was 0 mm; in the experiment with Pseudomonas aeruginosa, 0 mm; with Bacillus cereus it was 15 mm; in the experiment with Escherichia coli, 0 mm; in experiment [3], 15 mm; with Klebsiella pneumoniae, 0 mm. Further, the zone of inhibition at 500 µM (in the experiment with Corynebacterium xerosis; in experiment [4]; in the experiment on Micrococcus luteus) was 0 mm each time.

In the case of `O=C(O)c1cnc(Nc2ccc(-c3ccccc3)cc2)nc1O`, the zone of inhibition at 500 µM in [2] came out at 0 mm; in the experiment on Pseudomonas aeruginosa, 0 mm; in the experiment on Bacillus cereus, 12 mm; in the experiment on Escherichia coli, 0 mm; in experiment [3], 15 mm; with Klebsiella pneumoniae, 15 mm. For the same compound, the zone of inhibition at 500 µM (in the experiment with Corynebacterium xerosis; in [4]; in the experiment on Micrococcus luteus) was 0 mm each time.

With `CCOC(=O)c1cnc(NCc2ccccc2Cl)nc1O`, the zone of inhibition at 500 µM came out at 0 mm in experiment [2]; 0 mm in the experiment with Pseudomonas aeruginosa; 10 mm with Bacillus cereus; 0 mm with Escherichia coli; 0 mm in experiment [3]; 0 mm in the experiment with Klebsiella pneumoniae. The zone of inhibition at 500 µM with Corynebacterium xerosis came to 0 mm; in experiment [4] it was 0 mm; in the experiment on Micrococcus luteus it was 15 mm.

Turning to `CCOC(=O)c1cnc(NCCc2ccc(F)cc2)nc1O`, the zone of inhibition at 500 µM is 9 mm in experiment [2]; 11 mm in the experiment on Pseudomonas aeruginosa; 11 mm in the experiment on Bacillus cereus; 0 mm with Escherichia coli; 14 mm in [3]; 0 mm in the experiment with Klebsiella pneumoniae. Moreover, the zone of inhibition at 500 µM (in the experiment on Corynebacterium xerosis; in [4]; with Micrococcus luteus) was 0 mm in each case.

With `O=C(O)c1cnc(NCc2ccc(F)cc2)nc1O`, the zone of inhibition at 500 µM in experiment [2] stood at 12 mm; with Pseudomonas aeruginosa, 0 mm; with Bacillus cereus, 12 mm; in the experiment with Escherichia coli, 0 mm; in experiment [3], 0 mm; in the experiment on Klebsiella pneumoniae, 0 mm. Further, the zone of inhibition at 500 µM (with Corynebacterium xerosis; in experiment [4]; with Micrococcus luteus) was 0 mm throughout.

In the case of `O=C(O)c1cnc(Nc2ccc(Br)cc2)nc1O`, the zone of inhibition at 500 µM in [2] stood at 13 mm; in the experiment with Pseudomonas aeruginosa, 0 mm; with Bacillus cereus it was 12 mm; in the experiment with Escherichia coli it was 15 mm; in experiment [3], 17 mm; in the experiment on Klebsiella pneumoniae it was 12 mm. For the same compound, the zone of inhibition at 500 µM in the experiment on Corynebacterium xerosis stood at 16 mm; in experiment [4] it was 16 mm; in the experiment on Micrococcus luteus, 0 mm.

Take `CCOC(=O)c1cnc(NCc2cccc(Cl)c2)nc1O`: the zone of inhibition at 500 µM in experiment [2] came to 11 mm; with Pseudomonas aeruginosa, 0 mm; with Bacillus cereus, 0 mm; with Escherichia coli, 0 mm; in [3] it was 14 mm; in the experiment on Klebsiella pneumoniae, 0 mm. Also, the zone of inhibition at 500 µM (with Corynebacterium xerosis; in experiment [4]; in the experiment with Micrococcus luteus) was 0 mm each time.

The values above are taken from ChEMBL document CHEMBL4304805, “Antibacterial activity of 2-amino-4-hydroxypyrimidine-5-carboxylates and binding to Burkholderia pseudomallei 2-C-methyl-d-erythritol-2,4-cyclodiphosphate synthase” (Bioorg Med Chem Lett, 2019).
